In publication PMC4581874 (PLoS ONE, 2015):

How the values were obtained:
CaMKIIδ (h) = target: T1, CaMKIIδ (h) (Homo sapiens, UniProt Q13557); assay: Kinase profile, CaMKIIδ; type: biochemical; details: mean ± S.D.
T1 construct: purchased Millipore (now Eurofins) KinaseProfiler / IC50 Profiler
Method: (§1) All kinase assays were carried out using KinaseProfiler^TM and IC50 Profiler^TM (Millipore UK Ltd., Dundee, UK. Now Eurofins Scientific, Dundee, UK). All IC50 data were presented as the mean values. The Curves obtained to determine IC50 values were shown in Supporting Information (S1 Fig).

HUVECs [1] = assay: VEGF-induced endothelial proliferation assay; type: cell-based, human; details: VEGF 50 ng/mL, compound 1 μg/mL
Method: For the cell proliferation assays, cells were incubated overnight in endothelial basal media (EBM; Lonza, Walkersville, MD, USA) containing 0.5% FBS or supplemented with VEGF-A and/or VEGF inhibitors. The cells were washed with PBS and counted in 4 random microscope fields. The tube formation assay was performed by seeding cells on Matrigel-coated plates (BD Bioscience, Bedford, MA, USA) and incubating in EBM containing 0.5% FBS or supplemented with VEGF-A and/or VEGF inhibitors. After overnight incubation, tubule networks were quantified by measuring the tubule length in 4 random microscope fields. For the analysis of scratch wound migration, confluent cell monolayers grown on 6-well plates were scratched using a micropipette tip. After the plates were washed with PBS to remove dislodged cells and media, they were incubated with EBM containing 0.5% FBS or supplemented with VEGF and/or VEGF inhibitors for 8 hours. Cell migration was observed by optical microscopy and quantified by measuring the number of cells that had migrated from the wound edges.

PKCμ (h) = target: T2, PKCμ (h) (Homo sapiens, UniProt Q15139); assay: Kinase profile, PKCμ; type: biochemical; details: mean ± S.D.
T2 construct: purchased Millipore (now Eurofins) KinaseProfiler / IC50 Profiler
Method: as §1

PDGFRα = target: T3, PDGFRα (Homo sapiens, UniProt P16234); assay: In vitro kinase assay, PDGFRα; type: biochemical
T3 construct: purchased Millipore UK Ltd., Dundee, UK (now Eurofins Scientific); KinaseProfiler / IC50 Profiler service
Method: as §1

PKCβII (h) = target: T4, PKCβII (h) (Homo sapiens, UniProt P05771); assay: Kinase profile, PKCβII; type: biochemical; details: mean ± S.D.
T4 construct: purchased Millipore (now Eurofins) KinaseProfiler / IC50 Profiler
Method: as §1

HUVECs [2] = assay: VEGF-induced tube formation assay; type: cell-based, human; details: VEGF 50 ng/mL, compound 1 μg/mL
Method: For analyzing of the antagonistic response to VEGF, tube formation, scratch wound migration, and cell proliferation assays were performed after the exposure of HUVECs to 50 ng/mL VEGF-A (R&D Systems, Minneapolis, MN), which induced a significant angiogenic response. For the cell proliferation assays, cells were incubated overnight in endothelial basal media (EBM; Lonza, Walkersville, MD, USA) containing 0.5% FBS or supplemented with VEGF-A and/or VEGF inhibitors. The cells were washed with PBS and counted in 4 random microscope fields. The tube formation assay was performed by seeding cells on Matrigel-coated plates (BD Bioscience, Bedford, MA, USA) and incubating in EBM containing 0.5% FBS or supplemented with VEGF-A and/or VEGF inhibitors. After overnight incubation, tubule networks were quantified by measuring the tubule length in 4 random microscope fields. For the analysis of scratch wound migration, confluent cell monolayers grown on 6-well plates were scratched using a micropipette tip. […] Cell migration was observed by optical microscopy and quantified by measuring the number of cells that had migrated from the wound edges.
In (A) and (B), the number of cells was expressed as the fold change with respect to the number of cells seeded at day 0. […]

cKit = target: T5, cKit (Homo sapiens, UniProt P10721); assay: In vitro kinase assay, cKit; type: biochemical
T5 construct: purchased Millipore UK Ltd., Dundee, UK (now Eurofins Scientific); KinaseProfiler / IC50 Profiler service
Method: as §1

CDK7/cyclin H/MAT1 (h) = target: T6, CDK7/cyclin H/MAT1 (h) (Homo sapiens, UniProt P50613); assay: Kinase profile, CDK7/cyclin H/MAT1; type: biochemical; details: mean ± S.D.
T6 construct: purchased Millipore (now Eurofins) KinaseProfiler / IC50 Profiler
Method: as §1

IR (h) = target: T7, IR (h) (Homo sapiens, UniProt P06213); assay: Kinase profile, IR; type: biochemical; details: mean ± S.D.
T7 construct: purchased Millipore (now Eurofins) KinaseProfiler / IC50 Profiler
Method: as §1

PKCζ (h) = target: T8, PKCζ (h) (Homo sapiens, UniProt Q05513); assay: Kinase profile, PKCζ; type: biochemical; details: mean ± S.D.
T8 construct: purchased Millipore (now Eurofins) KinaseProfiler / IC50 Profiler
Method: as §1

GSK3β (h) = target: T9, GSK3β (h) (Homo sapiens, UniProt P49841); assay: Kinase profile, GSK3β; type: biochemical; details: mean ± S.D.
T9 construct: purchased Millipore (now Eurofins) KinaseProfiler / IC50 Profiler
Method: as §1

PKCα (h) = target: T10, PKCα (h) (Homo sapiens, UniProt P17252); assay: Kinase profile, PKCα; type: biochemical; details: mean ± S.D.
T10 construct: purchased Millipore (now Eurofins) KinaseProfiler / IC50 Profiler
Method: as §1

T3 sequence (P16234 24-1089): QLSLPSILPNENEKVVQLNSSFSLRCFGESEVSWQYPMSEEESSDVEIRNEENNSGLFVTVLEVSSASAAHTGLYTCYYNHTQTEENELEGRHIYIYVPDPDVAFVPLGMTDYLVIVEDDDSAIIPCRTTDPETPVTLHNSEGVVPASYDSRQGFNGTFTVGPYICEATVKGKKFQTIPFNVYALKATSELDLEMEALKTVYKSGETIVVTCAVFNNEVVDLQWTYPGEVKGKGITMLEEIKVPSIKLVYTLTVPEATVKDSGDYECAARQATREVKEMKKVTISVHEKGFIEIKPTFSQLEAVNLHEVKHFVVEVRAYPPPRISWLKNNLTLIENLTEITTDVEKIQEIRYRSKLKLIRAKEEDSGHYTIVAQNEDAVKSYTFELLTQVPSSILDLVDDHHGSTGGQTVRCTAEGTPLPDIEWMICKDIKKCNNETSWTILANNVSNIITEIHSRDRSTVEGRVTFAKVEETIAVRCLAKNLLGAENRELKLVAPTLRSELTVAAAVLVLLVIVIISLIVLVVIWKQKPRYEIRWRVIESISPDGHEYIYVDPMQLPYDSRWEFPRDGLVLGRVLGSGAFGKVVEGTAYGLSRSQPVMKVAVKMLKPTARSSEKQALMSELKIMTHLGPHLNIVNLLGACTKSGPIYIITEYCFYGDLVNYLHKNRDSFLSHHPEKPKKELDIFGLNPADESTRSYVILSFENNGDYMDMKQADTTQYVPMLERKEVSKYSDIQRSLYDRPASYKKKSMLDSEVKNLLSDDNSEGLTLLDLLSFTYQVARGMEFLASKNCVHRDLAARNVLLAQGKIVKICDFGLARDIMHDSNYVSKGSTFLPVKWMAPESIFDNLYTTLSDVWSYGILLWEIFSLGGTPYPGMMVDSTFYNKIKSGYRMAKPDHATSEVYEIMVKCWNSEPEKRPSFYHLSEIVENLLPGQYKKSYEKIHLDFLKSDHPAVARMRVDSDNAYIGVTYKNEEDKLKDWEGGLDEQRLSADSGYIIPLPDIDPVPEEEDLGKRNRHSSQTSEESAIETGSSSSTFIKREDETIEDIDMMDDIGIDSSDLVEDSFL
T5 sequence (P10721 26-976): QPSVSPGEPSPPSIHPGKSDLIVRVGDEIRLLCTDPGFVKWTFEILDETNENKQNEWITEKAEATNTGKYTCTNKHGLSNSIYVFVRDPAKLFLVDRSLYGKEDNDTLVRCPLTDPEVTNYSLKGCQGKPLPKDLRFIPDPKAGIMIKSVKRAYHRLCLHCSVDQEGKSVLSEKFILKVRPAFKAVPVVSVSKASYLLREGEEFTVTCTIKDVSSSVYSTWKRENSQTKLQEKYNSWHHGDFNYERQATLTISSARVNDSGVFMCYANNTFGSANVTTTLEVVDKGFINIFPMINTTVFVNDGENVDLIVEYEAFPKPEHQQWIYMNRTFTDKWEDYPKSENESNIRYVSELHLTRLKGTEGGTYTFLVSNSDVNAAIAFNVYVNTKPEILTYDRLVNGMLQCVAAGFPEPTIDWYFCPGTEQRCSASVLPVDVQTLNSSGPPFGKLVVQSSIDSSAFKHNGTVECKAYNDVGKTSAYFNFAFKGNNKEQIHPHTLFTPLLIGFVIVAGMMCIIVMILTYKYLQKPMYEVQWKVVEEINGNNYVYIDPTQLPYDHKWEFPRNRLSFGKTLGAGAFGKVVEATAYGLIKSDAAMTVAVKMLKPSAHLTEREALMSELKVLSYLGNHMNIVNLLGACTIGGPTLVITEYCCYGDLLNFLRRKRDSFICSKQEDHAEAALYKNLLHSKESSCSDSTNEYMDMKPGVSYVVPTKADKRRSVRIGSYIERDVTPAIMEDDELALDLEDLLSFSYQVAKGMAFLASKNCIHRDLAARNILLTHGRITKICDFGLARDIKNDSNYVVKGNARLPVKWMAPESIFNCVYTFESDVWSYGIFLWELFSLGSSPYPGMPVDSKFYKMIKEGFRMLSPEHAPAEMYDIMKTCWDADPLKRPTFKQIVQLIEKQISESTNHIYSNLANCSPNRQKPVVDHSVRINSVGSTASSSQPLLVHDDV
T6 sequence (P50613 whole entry): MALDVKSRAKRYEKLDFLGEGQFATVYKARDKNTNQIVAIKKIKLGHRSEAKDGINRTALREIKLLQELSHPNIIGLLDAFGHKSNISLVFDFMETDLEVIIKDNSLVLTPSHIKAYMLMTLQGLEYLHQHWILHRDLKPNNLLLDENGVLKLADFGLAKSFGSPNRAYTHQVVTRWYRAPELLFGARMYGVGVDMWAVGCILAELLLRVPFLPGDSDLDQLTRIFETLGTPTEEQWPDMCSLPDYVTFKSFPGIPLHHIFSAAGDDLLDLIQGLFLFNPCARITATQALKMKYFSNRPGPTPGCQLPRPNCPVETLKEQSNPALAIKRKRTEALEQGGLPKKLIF
T6 sequence (P51946 whole entry partner): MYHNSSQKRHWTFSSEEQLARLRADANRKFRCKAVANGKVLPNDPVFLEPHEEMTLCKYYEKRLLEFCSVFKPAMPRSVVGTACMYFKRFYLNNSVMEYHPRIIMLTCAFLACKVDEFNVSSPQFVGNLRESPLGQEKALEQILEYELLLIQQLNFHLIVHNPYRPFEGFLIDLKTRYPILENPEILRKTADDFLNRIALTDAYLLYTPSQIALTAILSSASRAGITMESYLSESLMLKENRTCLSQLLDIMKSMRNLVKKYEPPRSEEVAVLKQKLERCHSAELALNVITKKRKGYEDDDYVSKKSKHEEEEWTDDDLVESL
T6 sequence (P51948 whole entry partner): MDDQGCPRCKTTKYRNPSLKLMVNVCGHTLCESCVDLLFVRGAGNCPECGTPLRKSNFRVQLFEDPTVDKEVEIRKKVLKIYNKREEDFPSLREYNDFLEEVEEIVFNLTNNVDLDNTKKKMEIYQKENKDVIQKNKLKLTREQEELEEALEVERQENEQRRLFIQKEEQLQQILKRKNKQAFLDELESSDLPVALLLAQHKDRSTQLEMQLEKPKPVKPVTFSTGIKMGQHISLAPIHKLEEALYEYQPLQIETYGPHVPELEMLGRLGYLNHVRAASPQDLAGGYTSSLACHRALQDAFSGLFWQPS
T2 sequence (Q15139 whole entry): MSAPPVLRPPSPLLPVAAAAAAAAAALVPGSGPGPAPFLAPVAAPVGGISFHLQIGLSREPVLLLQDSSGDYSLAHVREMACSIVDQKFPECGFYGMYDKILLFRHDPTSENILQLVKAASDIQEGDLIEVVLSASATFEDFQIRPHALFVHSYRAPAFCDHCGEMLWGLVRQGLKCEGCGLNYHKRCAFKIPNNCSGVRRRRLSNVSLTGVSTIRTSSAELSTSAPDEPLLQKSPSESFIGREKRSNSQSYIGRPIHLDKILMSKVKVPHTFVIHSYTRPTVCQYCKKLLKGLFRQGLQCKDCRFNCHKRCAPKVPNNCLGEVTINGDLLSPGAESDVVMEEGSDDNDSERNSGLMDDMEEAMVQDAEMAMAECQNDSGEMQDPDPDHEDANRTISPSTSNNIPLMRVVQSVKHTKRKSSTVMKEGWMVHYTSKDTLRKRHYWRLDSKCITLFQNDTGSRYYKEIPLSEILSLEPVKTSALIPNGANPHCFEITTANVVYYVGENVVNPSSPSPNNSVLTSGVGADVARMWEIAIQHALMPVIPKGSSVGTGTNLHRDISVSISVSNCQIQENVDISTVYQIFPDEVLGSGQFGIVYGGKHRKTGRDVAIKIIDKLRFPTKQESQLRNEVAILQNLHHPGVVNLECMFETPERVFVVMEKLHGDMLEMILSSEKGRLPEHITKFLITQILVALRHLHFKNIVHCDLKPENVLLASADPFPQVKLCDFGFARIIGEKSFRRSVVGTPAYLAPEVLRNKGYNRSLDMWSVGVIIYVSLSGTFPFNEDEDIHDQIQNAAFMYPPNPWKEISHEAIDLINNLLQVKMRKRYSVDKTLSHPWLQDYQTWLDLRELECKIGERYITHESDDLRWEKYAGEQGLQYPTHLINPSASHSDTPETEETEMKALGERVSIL
T9 sequence (P49841 whole entry): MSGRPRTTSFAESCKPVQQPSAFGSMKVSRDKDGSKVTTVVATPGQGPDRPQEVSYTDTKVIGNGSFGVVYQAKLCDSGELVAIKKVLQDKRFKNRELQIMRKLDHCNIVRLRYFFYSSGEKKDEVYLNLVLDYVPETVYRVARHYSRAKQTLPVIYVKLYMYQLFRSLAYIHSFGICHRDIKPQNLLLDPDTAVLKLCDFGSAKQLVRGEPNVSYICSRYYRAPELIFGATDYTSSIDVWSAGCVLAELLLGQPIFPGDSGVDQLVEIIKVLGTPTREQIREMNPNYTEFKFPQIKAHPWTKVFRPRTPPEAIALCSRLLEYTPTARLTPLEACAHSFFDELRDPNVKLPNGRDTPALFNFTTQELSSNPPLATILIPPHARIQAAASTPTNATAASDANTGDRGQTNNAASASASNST
T4 sequence (P05771 1-673 isoform P05771-2): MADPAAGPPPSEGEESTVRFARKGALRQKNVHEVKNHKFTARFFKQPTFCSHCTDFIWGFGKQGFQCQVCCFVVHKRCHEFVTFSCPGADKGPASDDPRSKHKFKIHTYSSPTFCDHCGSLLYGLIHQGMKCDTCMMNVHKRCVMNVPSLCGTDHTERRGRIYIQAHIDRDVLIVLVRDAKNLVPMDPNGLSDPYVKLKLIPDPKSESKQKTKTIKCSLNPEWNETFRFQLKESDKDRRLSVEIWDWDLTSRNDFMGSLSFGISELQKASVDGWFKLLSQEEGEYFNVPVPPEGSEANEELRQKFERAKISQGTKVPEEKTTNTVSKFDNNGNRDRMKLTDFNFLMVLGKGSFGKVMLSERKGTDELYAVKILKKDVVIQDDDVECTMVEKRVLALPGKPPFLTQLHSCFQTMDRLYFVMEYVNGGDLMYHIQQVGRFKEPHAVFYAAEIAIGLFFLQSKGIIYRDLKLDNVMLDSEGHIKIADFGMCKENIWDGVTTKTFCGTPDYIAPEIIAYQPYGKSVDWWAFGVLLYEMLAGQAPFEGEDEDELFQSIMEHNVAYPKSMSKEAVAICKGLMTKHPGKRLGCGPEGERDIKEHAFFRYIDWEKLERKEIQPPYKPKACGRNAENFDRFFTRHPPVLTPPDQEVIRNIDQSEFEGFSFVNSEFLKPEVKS

inhibition at 1 µM (CaMKIIδ (h)): 41 ± 3%
inhibition at 1 µM (PKCμ (h)): 7 ± 1%
inhibition at 1 µM (PDGFRα; 1 μM, mean ± S.D., read-out: % inhibition at 1 μM, PDGFRα (h)): 93%
IC50 (PDGFRα; in vitro kinase assay): 162 nM
inhibition at 1 µM (PKCβII (h)): 8 ± 3%
inhibition at 1 µM (cKit; 1 μM, mean ± S.D., read-out: % inhibition at 1 μM, cKit(h)): 99%
IC50 (cKit; in vitro kinase assay): 108 nM
inhibition at 1 µM (CDK7/cyclin H/MAT1 (h)): 16 ± 5%
inhibition at 1 µM (IR (h)): 14 ± 3%
inhibition at 1 µM (PKCζ (h)): 5 ± 4%
inhibition at 1 µM (GSK3β (h)): 18 ± 4%
inhibition at 1 µM (PKCα (h)): 10 ± 1%
SMILES: Cc1ccc(Nc2nccc(N(C)c3ccc4[nH]ccc4c3)n2)cc1S(N)(=O)=O [MKP101]
Effect on VEGF-induced increase in endothelial proliferation (HUVECs [1]): significantly inhibited
Effect on VEGF-induced increase in tube formation (HUVECs [2]): significantly inhibited
